What all share (format): cell-based
For one series, the system named is MCF10A. The series is described as follows: WST-1 cytotoxicity, 72 h. Particulars: mean ± SEM. The procedure:
(§1) Cells were seeded in 96-well flat-bottom culture plates at a concentration of 1000 cells per well. […] After 72 h, the medium was removed and replaced with new medium. The cell viability reagent WST-1 (10 µL, Roche Diagnostics, Indianapolis, IN, USA) was added to each well. After an hour, the absorbance was measured at 450 nm using a versatile microplate reader (Bio-strategy, Campbellfield, VIC, Australia). Three separate experiments were performed, each with n = 3 replicates. GraphPad prism 10 was used to calculate apparent IC50 values using the nonlinear regression model Y = Bottom + (Top-Bottom)/(1 + 10^(X-LogIC50)) where Top and bottom are plateaus in the y-axis (% survival). The R^2 value of the curve fits ranged from 0.8972 to 0.9794.

A further series deals with MCF−7. Kind of series: WST-1 cytotoxicity, 72 h. The following applies: for Selective cytotoxicity index (SCI): IC50 MCF10A/IC50 MCF−7; for potency relative to cisplatin / IC50: MCF−7, 72 h; for IC50: mean ± SEM. The procedure: as §1, with “survival).” for “survival). The R^2 value of the curve fits ranged from 0.8972 to 0.9794.”
The test system of the next series is A2780. Kind of series: WST-1 cytotoxicity, 72 h. The following applies: for potency relative to cisplatin / IC50: A2780, 72 h; for IC50: mean ± SEM; for Selective cytotoxicity index (SCI): IC50 MCF10A/IC50 A2780. Here is the method: as §1, with “survival).” for “survival). The R^2 value of the curve fits ranged from 0.8972 to 0.9794.”
A further series relates to MDA−MB−231. The series is described as follows: WST-1 cytotoxicity, 72 h. The following applies: for Selective cytotoxicity index (SCI): IC50 MCF10A/IC50 MDA−MB−231; for potency relative to cisplatin / IC50: MDA−MB−231, 72 h; for IC50: mean ± SEM. The procedure:
as §1, with “survival).” for “survival). The R^2 value of the curve fits ranged from 0.8972 to 0.9794.”
Background: Formazan colour is commonly taken as a measure of viable cells.

The subject of the next series is ADDP. The series is described as follows: WST-1 cytotoxicity, 72 h. Particulars: for potency relative to cisplatin / IC50: ADDP, 72 h; for IC50: mean ± SEM; for Selective cytotoxicity index (SCI): IC50 MCF10A/IC50 ADDP. The procedure: as §1, with “survival).” for “survival). The R^2 value of the curve fits ranged from 0.8972 to 0.9794.”
For the next series, the system named is HT29. Kind of series: WST-1 cytotoxicity, 72 h. The following applies: for potency relative to cisplatin / IC50: HT29, 72 h; for IC50: mean ± SEM; for Selective cytotoxicity index (SCI): IC50 MCF10A/IC50 HT29. Here is the method: as §1, with “survival).” for “survival). The R^2 value of the curve fits ranged from 0.8972 to 0.9794.”
For the next series, the system named is HT29 cells. The series is described as follows: DCFDA cellular ROS detection assay. The following applies: complexes at IC50, TBHP 20 µM. The procedure:
(§2) DCFDA/H2DCFDA-cellular ROS Assay Kit (Abcam, Cambridge, MA, USA) was used to investigate the production of ROS in treated cells, as previously described. MDA−MB−231 or HT29 cells were seeded at a total concentration of 2500 cells/well in 96-well plates and incubated overnight. DMEM was then removed, and cells washed with 1× kit buffer, and stained with 25 µM 2′,7′-dichlorofluorescein diacetate (DCFH-DA) for 45 min. […] After that, the plates were scanned using the Glo-Max®-Multimode microplate reader (Promega Corporation, Alexandra, VIC, Australia) at an excitation/emission of 485/535 nm to detect fluorescence (relative fluorescence units, or RFU) at various time points. A positive control was generated using 20 µM tert-butyl hydroperoxide (TBHP), and the same procedure was applied with DCFDA. Three independent experiments in triplicates were implemented.

The next series relates to MDA−MB−231 cells. Kind of series: DCFDA cellular ROS detection assay. Particulars: complexes at IC50, TBHP 20 µM. Here is the method:
as §2

A further series deals with MDA−MB−231 spheroids. Kind of series: 3D bioprinted spheroid cytotoxicity (WST-1). The following applies: 72 h, mean ± SEM. The text has this:
(§3) To evaluate the cytotoxic effect of platinum(II) and (IV) complexes in 3D cell culture, MDA−MB−231 or HT29 cells were used to bioprint networks or spheroids with the non-contact drop-on-demand 3D RASTRUM bioprinter (Inventia Life Science, Alexandria, NSW, Australia). The 3D cultures use two constituents: bioink and activator. Cell pellets (2 × 10^6 cells) were resuspended in an activator reagent which forms an instant gel after its addition to the bioink by the bioprinter. The 3D large plug cell model with polyethylene glycol bioinks formulated to mimic the properties of in vivo tissue were chosen as follows. Matrix Px02.31 (activator F177 and bioink F242 with RGD: Fibronectin) was used for MDA−MB−231 3D embedded networks, Px02.00 (activator F177 and bioink F119 without RGD additives, Table S1) was used for MDA−MB−231 spheroids and matrix #Px02.09 (activator F177 and bioink F236 with adhesion peptides including, RGD: Fibronectin, and GFOGER: collagen type I to recapitulate rich in vivo tissue extracellular environments) was used for HT29 spheroids (Inventia Life Science) (Table S1). Each cell line was printed at 10,000 cells/well and loaded with the bioink fluids into the selected printer cartridge. After the automated priming of all fluids into the printer nozzles, each cell line was individually printed on tissue culture plates (Nunc^TM MicroWell^TM 96-Well, Nunclon Delta-Treated, Flat-Bottom Microplate, ThermoFisher #167008), with RASTRUM creating the 3D Large Plug across the 96-well plate. Following completion of the print run, 200 μL DMEM culture medium was added to each well using multichannel pipettes. The plate was then incubated for 7 days (humidified incubator with 5% CO2 at 37 °C) for compact and homogenous spheroid formation before the cytotoxicity assay. When the spheroids developed, post-7-day incubation, media was removed and replaced with 100 µL DMEM. […] Cytotoxicity was then assessed using the WST-1 assay as previously described in Section 2.3.

The test system of a further series is HT29 spheroids. Kind of series: 3D bioprinted spheroid cytotoxicity (WST-1). The following applies: 72 h, mean ± SEM.
Source text: as §3

What is called IC50 is the concentration at which inhibition is half-maximal. With `Cc1cc2cccnc2c2ncccc12.N[C@H]1CCCC[C@@H]1N.O=[N+]([O-])[O-].O=[N+]([O-])[O-].[OH][Pt+2][OH]` [Pt^IV5MESS(OH)2, [Pt(5-methyl-1,10-phenanthroline)(1S,2S-diaminocyclohexane)(dihydroxy)](NO3)2], the IC50 in the series on MCF10A is 12.2 ± 1.48 µM; with MCF−7 it was 2.16 ± 1.53 µM; with A2780, 2.14 ± 1.38 µM; in the series with MDA−MB−231, 2.79 ± 1.39 µM; in the series on ADDP it was 7.71 ± 1.31 µM; with HT29, 3.64 ± 1.45 µM. Further, the IC50 was 7.99 ± 1.3 µM in the series with MDA−MB−231 spheroids and 8.46 ± 1.23 µM with HT29 spheroids. Further, the “Selective cytotoxicity index (SCI)” value in the series with MCF−7 came out at 5.66; in the series on A2780, 5.71; in the series with MDA−MB−231, 4.38; in the series on ADDP, 1.58; with HT29, 3.36. The “potency relative to cisplatin” value in the series on MCF−7 worked out at 15 fold; in the series with A2780, 10 fold; in the series with MDA−MB−231 it was 5 fold; with ADDP, 15 fold; in the series on HT29 it was 21 fold. The ROS production with HT29 cells (HT29, 24 h) is on record as 234.55 RFU; in the series with HT29 cells (HT29, 48 h), 278.33 RFU; in the series with HT29 cells (HT29, 72 h) it was 296.67 RFU; with MDA−MB−231 cells (MDA−MB−231, 24 h), 245.26 RFU; in the series on MDA−MB−231 cells (MDA−MB−231, 48 h), 264.00 RFU; in the series with MDA−MB−231 cells (MDA−MB−231, 72 h) it was 314.78 RFU.

For `Cc1c(C)c2cccnc2c2ncccc12.N[C@H]1CCCC[C@@H]1N.O=[N+]([O-])[O-].O=[N+]([O-])[O-].[OH][Pt+2][OH]` [Pt^IV56MESS(OH)2, [Pt(5,6-dimethyl-1,10-phenanthroline)(1S,2S-diaminocyclohexane)(dihydroxy)](NO3)2], the half-inhibitory concentration (IC50) is 4.91 ± 1.45 µM with MCF10A; 1.36 ± 1.47 µM in the series with MCF−7; 1.69 ± 1.36 µM with A2780; 0.71 ± 1.22 µM with MDA−MB−231; 4.17 ± 1.55 µM in the series with ADDP; 1.25 ± 1.38 µM in the series with HT29. Besides, the IC50 with MDA−MB−231 spheroids was 4.59 ± 1.35 µM; with HT29 spheroids, 3.16 ± 1.32 µM. For the same compound, the “Selective cytotoxicity index (SCI)” value with MCF−7 is 3.61; in the series on A2780, 2.90; in the series with MDA−MB−231 it was 6.92; with ADDP it was 1.18; with HT29, 3.93. For the same compound, the “potency relative to cisplatin” value in the series on MCF−7 is 24 fold; in the series on A2780, 13 fold; with MDA−MB−231, 18 fold; with ADDP, 27 fold; in the series on HT29, 62 fold. The ROS production with HT29 cells (HT29, 24 h) worked out at 244 RFU; with HT29 cells (HT29, 48 h) it was 318.56 RFU; with HT29 cells (HT29, 72 h) it was 368.11 RFU; with MDA−MB−231 cells (MDA−MB−231, 24 h), 292.21 RFU; in the series with MDA−MB−231 cells (MDA−MB−231, 48 h) it was 360.12 RFU; with MDA−MB−231 cells (MDA−MB−231, 72 h), 386.28 RFU.

Take `N[C@H]1CCCC[C@@H]1N.O=[N+]([O-])[O-].O=[N+]([O-])[O-].[OH-].[OH-].[Pt+4].c1cnc2c(c1)ccc1cccnc12` [[Pt(1,10-phenanthroline)(1S,2S-diaminocyclohexane)(dihydroxy)](NO3)2]: the IC50 with MCF10A is 20.5 ± 1.32 µM; in the series on MCF−7 it was 9.39 ± 1.26 µM; with A2780 it was 6.49 ± 1.23 µM; in the series with MDA−MB−231, 3.34 ± 1.37 µM; in the series with ADDP, 13.6 ± 1.57 µM; in the series with HT29, 4.48 ± 1.77 µM. Also, the IC50 came to 13.5 ± 1.25 µM in the series on MDA−MB−231 spheroids and 11.4 ± 1.31 µM in the series on HT29 spheroids. In addition, the “Selective cytotoxicity index (SCI)” value in the series on MCF−7 is 2.18; in the series with A2780 it was 3.15; in the series with MDA−MB−231, 6.13; with ADDP, 1.49; in the series on HT29 it was 4.57. Further, the “potency relative to cisplatin” value with MCF−7 is 3 fold; in the series with A2780, 3 fold; with MDA−MB−231, 4 fold; in the series on ADDP, 8 fold; with HT29, 17 fold. Also, the ROS production in the series on HT29 cells (HT29, 24 h) stood at 182.77 RFU; in the series on HT29 cells (HT29, 48 h) it was 217.33 RFU; in the series on HT29 cells (HT29, 72 h), 242.44 RFU; in the series with MDA−MB−231 cells (MDA−MB−231, 24 h), 196.62 RFU; in the series on MDA−MB−231 cells (MDA−MB−231, 48 h), 256.83 RFU; in the series with MDA−MB−231 cells (MDA−MB−231, 72 h), 275.09 RFU.

As to `N[C@H]1CCCC[C@@H]1N.O=[N+]([O-])[O-].O=[N+]([O-])[O-].[Pt+2].c1cnc2c(c1)ccc1cccnc12` [[Pt(1,10-phenanthroline)(1S,2S-diaminocyclohexane)](NO3)2], the IC50 in the series with MCF10A is 3.49 ± 1.39 µM; in the series on MCF−7, 1.83 ± 2.12 µM; in the series with A2780 it was 1.11 ± 1.88 µM; in the series on MDA−MB−231 it was 1.01 ± 1.36 µM; with ADDP, 2.55 ± 1.48 µM; with HT29, 0.76 ± 1.47 µM. Moreover, the IC50 is 5.44 ± 1.35 µM with MDA−MB−231 spheroids and 3.93 ± 1.46 µM in the series with HT29 spheroids. For the same compound, the “Selective cytotoxicity index (SCI)” value was found to be 1.91 in the series with MCF−7; 3.14 in the series with A2780; 3.45 in the series with MDA−MB−231; 1.37 in the series with ADDP; 4.59 in the series with HT29. In addition, the “potency relative to cisplatin” value in the series with MCF−7 was 18 fold; in the series with A2780, 19 fold; with MDA−MB−231, 13 fold; with ADDP, 44 fold; with HT29, 102 fold. The ROS production was 219.00 RFU in the series on HT29 cells (HT29, 24 h); 256.22 RFU in the series on HT29 cells (HT29, 48 h); 273.00 RFU in the series with HT29 cells (HT29, 72 h); 234.82 RFU in the series on MDA−MB−231 cells (MDA−MB−231, 24 h); 285.31 RFU in the series with MDA−MB−231 cells (MDA−MB−231, 48 h); 297.81 RFU in the series on MDA−MB−231 cells (MDA−MB−231, 72 h).

For the origin of these results see PMC11274883, “Anticancer Effect of Pt^[sequence], Pt^II5MESS, Pt^II56MESS and Their Platinum(IV)-Dihydroxy Derivatives against Triple-Negative Breast Cancer and Cisplatin-Resistant Colorectal Cancer” (Cancers, 2024).
